Test results from patent publication US7786141B2 (Vertex Pharmaceuticals Incorporated, priority 2004, dated 2010).
Like-named read-outs stand apart in the source and are kept apart here.

Tests used:
[1] = molecular target: T1, M4 muscarinic receptor (Homo sapiens, UniProt P08173); assay: Functional mobilization of intracellular calcium (FLIPR) in M4-CHO cells; type: cell-based
T1 construct: expressed in transfected cells; host or cells: CHO (M4-CHO)
T1 sequence (P08173 1-479): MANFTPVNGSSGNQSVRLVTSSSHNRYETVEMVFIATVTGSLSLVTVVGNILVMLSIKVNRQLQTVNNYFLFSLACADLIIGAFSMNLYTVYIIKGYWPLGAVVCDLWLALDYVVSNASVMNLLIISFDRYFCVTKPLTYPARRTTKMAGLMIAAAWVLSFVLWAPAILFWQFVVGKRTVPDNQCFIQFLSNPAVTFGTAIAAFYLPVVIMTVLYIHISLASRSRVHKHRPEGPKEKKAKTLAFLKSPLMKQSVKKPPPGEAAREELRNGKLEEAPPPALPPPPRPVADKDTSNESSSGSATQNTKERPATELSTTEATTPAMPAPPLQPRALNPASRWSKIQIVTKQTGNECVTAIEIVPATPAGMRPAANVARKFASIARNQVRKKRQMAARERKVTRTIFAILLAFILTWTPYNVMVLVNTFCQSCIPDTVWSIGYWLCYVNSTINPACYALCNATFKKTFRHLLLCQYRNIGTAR
Experimental: (§1) Functional Mobilization of Intracellular Calcium to Determine Muscarinic Receptor Activity:
(§2) CHO cells expressing muscarinic receptors (M1 to M5) are grown as monolayers in tissue culture flasks at 37° C. in a humidified atmosphere containing 5% CO2 and passaged every 3-5 days. The growth media is Dulbecco's modified eagles medium (DMEM, Gibco Cat# 12430-054), containing 25 mM Hepes and supplemented with Fetal Bovine Serum (Hyclone, cat# SH30071.03), 0.1 mM of MEM non-essential amino acids (GIBCO, Cat# 11140-050), 1 mM MEM Sodium Pyruvate (GIBCO Cat# 11360-070) and 100 units/ml of Penicillin G and 100 μg/ml of Streptomycin (GIBCO Cat# 15140-122). The recombinant muscarinic receptor cell lines are grown under antibiotic pressure with media containing 25 μg/ml zeocin and 500 μg/ml G418 (M1-CHO), 4 μg/ml puromycin, 50 μg/ml zeocin and 2.5 μg/ml blasticidin (M2 and M4-CHO) or 50 μg/ml zeocin and 4 μg/ml puromycin (M3 and M5-CHO).
(§3) Cells are harvested at 80-90% confluence using Versene (GIBCO Cat# 15040-066), collected by centrifugation and seeded 18-24 hrs prior to running the calcium assay at a density of 5,000 cells/well in back-walled, clear-bottomed 384-well plates (BD Biocoat, poly-D-lysine, Cat#356663). The day of the experiment, the cells are washed with a plate washer (Bioteck Instruments, ELX 405) using bath 1 buffer (140-mM NaCl, 4.5-mM KCl, 2-mM CaCl2, 1-mM MgCl2, 10-mM Hepes-Na, 10-mM Glucose, pH 7.4, with NaOH) containing 1 mM Probenecid. Next, the calcium dye Fluo-3 (25 μl/well of Fluo-3 AM at 4 μM, Molecular Probes F-1241, in Bath 1 buffer containing 1 mM Probenecid) is added to the 25 μl of Bath 1 remaining in each well after the plate wash and the dye is loaded at 37° C. in the tissue culture incubator for 60-90 min. The fluorescent dye is removed using the plate washer with Bath 1 containing 1 mM Probenecid, leaving 25 μl/well of this solution after the wash. Alternatively, cells can be loaded with the calcium indicator from Molecular Devices (Calcium 3 Assay Reagents, Cat # R7181) adding 5 μl of a 5× solution dye in Bath 1 containing 1 mM Probenecid (10 ml per dye flask cat# R7182 to generate a solution 20×) to 20 μl of the same buffer. After loading for 60 min, the experiment can be run without having to remove the dye.
(§4) Compounds are prepared at a 2× fold concentration in a 96-well plate (round bottom, Costar Corning cat# 3656), by reconstituting the pre-spotted compounds in bath 1 containing 1 mM probenecid. The final concentration DMSO is 0.5%, and the amount of DMSO is normalized across the assay plate. To determine an agonist action of the compounds on muscarinic receptors, the reconstituted compounds are added (25 μl compound/well) to the cell assay plate (containing 25 μl/well) using the multi-channel robotic system of the FLIPR 3 Instrument (Molecular Devices, Sunnyvale, Calif.). To determine a functional inhibitory action of the compounds on muscarinic receptors, the reconstituted compounds are added (25 μl compound/well) to the assay plate and pre-incubated for 15 min prior to adding 25 μl of Carbachol at 3× the EC80 for each muscarinic subtype. Alternatively, the compounds can be co-applied simultaneously with the agonist. In both assay modes, the fluorescence is recorded for 60 sec (excitation wavelength is […] and emission wavelength 540 nm) using the FLIPR 3 instrument.
(§5) The potency, efficacy and selectivity of the muscarinic compounds were evaluated by screening the compound activity across the whole family (M1 to M5 cells). Compounds were also screened for activity on other proteins such as other GPCRs and ion channels to determine selectivity on M4 receptors.

[2] = molecular target: T2, M1 muscarinic receptor (Homo sapiens, UniProt P11229); assay: Functional mobilization of intracellular calcium (FLIPR) in M1-CHO cells; type: cell-based
T2 construct: expressed in transfected cells; host or cells: CHO (M1-CHO)
T2 sequence (P11229 1-460): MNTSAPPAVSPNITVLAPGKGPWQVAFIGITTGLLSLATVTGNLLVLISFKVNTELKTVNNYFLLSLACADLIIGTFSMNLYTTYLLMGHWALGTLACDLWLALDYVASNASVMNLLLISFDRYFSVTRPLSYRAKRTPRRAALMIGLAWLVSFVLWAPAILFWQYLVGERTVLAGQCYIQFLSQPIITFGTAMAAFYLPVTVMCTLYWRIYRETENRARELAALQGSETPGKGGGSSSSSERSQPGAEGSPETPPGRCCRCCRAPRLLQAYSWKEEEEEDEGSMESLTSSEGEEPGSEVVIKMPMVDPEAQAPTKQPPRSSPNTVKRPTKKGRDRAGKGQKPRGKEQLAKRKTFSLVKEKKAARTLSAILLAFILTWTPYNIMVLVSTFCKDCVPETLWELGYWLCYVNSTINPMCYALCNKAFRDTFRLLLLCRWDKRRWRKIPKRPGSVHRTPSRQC
Experimental: as §1, §2, §3, §4, §5

[3] = Table 4, 100% efficacy is the maximum response obtained with the Carbachol control
[4] = Table 4, modulating M4 receptor
[5] = Table 4, modulating M1 receptor
[6] = M4 receptor, calcium mobilization
[7] = M1 receptor, calcium mobilization
[8] = 100% efficacy is the maximum response obtained with the Carbachol control, Table 5
[9] = CHO cells expressing M4, calcium mobilization, Table 5
[10] = CHO cells expressing M1, calcium mobilization, Table 5
[11] = M4 receptor, calcium mobilization, read-out: M4 Efficacy
[12] = M1 receptor, calcium mobilization, read-out: M1 Efficacy
[13] = M4-CHO cells, calcium mobilization (FLIPR)
[14] = M4-CHO cells, calcium mobilization (FLIPR), read-out: M4 Efficacy
[15] = M1-CHO cells, calcium mobilization (FLIPR)
[16] = M1-CHO cells, calcium mobilization (FLIPR), read-out: M1 Efficacy
[17] = Table 4, M4 receptor, calcium mobilization (FLIPR)
[18] = Table 4, M1 receptor, calcium mobilization (FLIPR)

Compound	Emax [1, 3] [%]	M4 Activity [1, 4]	Emax [2, 3] [%]	M1 Activity [2, 5]	M4 Activity [1, 6]	M1 Activity [2, 7]	also measured
CS(=O)(=O)N[C@H]1CCC2(CCN(C3CCCCCC3)CC2)c2ccccc21 [compound 723]	25 to 100	xxx (activity was measured to be less than 2.0 μM)	25 to 100	xxx (activity was measured to be less than 2.0 μM)			
CCOC(=O)N1C2CCC1CC(N1CCC3(CC1)CN(C(=O)O[C@@H]1CCOC1)c1ccc(F)cc13)C2 (stereo partly shown) [compound 344]					xx (activity was measured to be between 0.1 μM and 1.0 μM)	xxx (activity was measured to be less than 0.1 μM)	M4 Efficacy [1, 6]: x (efficacy was calculated to be less than 65%); M1 Efficacy [2, 7]: xx (efficacy was calculated to be between 85% and 65%)
O=C(N[C@H]1CCC2(CCN(C3CC4CCC(C4)C3)CC2)c2ccccc21)C1CC1 (stereo partly shown) [compound 744]	25 to 100	xxx (activity was measured to be less than 2.0 μM)	25 to 100	xxx (activity was measured to be less than 2.0 μM)			
CN(C)C(=O)N1CC2(CCN(C3CCN(c4ccccn4)CC3)CC2)c2cc(F)ccc21 [compound 1039]							Emax [1, 8]: 25 to 100%; EC50 [1, 9]: < 2000 nM; Emax [2, 8]: 25 to 100%; EC50 [2, 10]: 2000 to 10000 nM
CC(=O)NC1CC2(CCN(C3CC4CCC(C4)C3)CC2)c2ccccc21 (stereo not shown) [compound 8]					xx (activity was measured to be between 0.1 μM and 1.0 μM)	xx (activity was measured to be between 0.1 μM and 1.0 μM)	Emax [1, 11]: 65 to 85%; Emax [2, 12]: < 65%
O=C(C1CC1)N1CC2(CCN(C3CC4CCC(C3)N4C(=O)OC3CCC3)CC2)c2cc(F)ccc21 (stereo not shown) [compound 379]							EC50 [1, 13]: 100 to 1000 nM; Emax [1, 14]: 65 to 85%; EC50 [2, 15]: < 100 nM; Emax [2, 16]: 65 to 85%
COC(=O)N1CCC(CCN2CCC3(CCC(NC(C)=O)c4ccccc43)CC2)CC1 (stereo not shown) [compound 875]	< 25		25 to 100				M4 Activity [1, 17]: x (activity was measured to be greater than 5.0 μM); M1 Activity [2, 18]: xxx (activity was measured to be less than 2.0 μM)
CCOC(=O)N1CCC(N2CCC3(CC2)CN(C(C)=O)c2c(C4CCCC4)cccc23)CC1 [compound 918]	< 25		25 to 100				M4 Activity [1, 17]: x (activity was measured to be greater than 5.0 μM); M1 Activity [2, 18]: x (activity was measured to be greater than 5.0 μM)
CCOC(=O)N1CCC(N2CCC3(CC2)CN(C(=O)Nc2ccccc2)c2ccccc23)CC1 [compound 433]	25 to 100	xxx (activity was measured to be less than 2.0 μM)	> 100	xxx (activity was measured to be less than 2.0 μM)			
CC(=O)NC1CC2(CCN(CC3CC4C=CC3C4)CC2)c2ccccc21 (stereo not shown) [compound 305]					x (activity was measured to be greater than 1.0 μM)	x (activity was measured to be greater than 1.0 μM)	M4 Efficacy [1, 6]: x (efficacy was calculated to be less than 65%); M1 Efficacy [2, 7]: x (efficacy was calculated to be less than 65%)
CC(=O)N1CC2(CCN(C3CCN(c4nc(C)cs4)CC3)CC2)c2ccccc21 [compound 471]	25 to 100	xx (activity was measured to be between 2.0 μM and 5.0 μM)	25 to 100	xx (activity was measured to be between 2.0 μM and 5.0 μM)			
COc1ccc(N2CCC(N3CCC4(CC3)CN(C(=O)N(C)C)c3ccc(F)cc34)CC2)cc1 [compound 1029]							Emax [1, 8]: 25 to 100%; EC50 [1, 9]: 2000 to 10000 nM; Emax [2, 8]: 25 to 100%; EC50 [2, 10]: 2000 to 10000 nM
C#CCCOC(=O)N1C2CCC1CC(N1CCC3(CC1)CN(C(C)=O)c1ccccc13)C2 (stereo not shown) [compound 747]	25 to 100	xxx (activity was measured to be less than 2.0 μM)	25 to 100	xxx (activity was measured to be less than 2.0 μM)			
CS(=O)(=O)N[C@H]1CC2(CCN(C[C@H]3C[C@H]4C=C[C@H]3C4)CC2)c2ccccc21 [compound 70]					x (activity was measured to be greater than 1.0 μM)	xx (activity was measured to be between 0.1 μM and 1.0 μM)	Emax [1, 11]: 65 to 85%; Emax [2, 12]: 65 to 85%
CCOC(=O)N1CCC(N2CCC3(CC2)CN(C(=O)c2c(F)cccc2F)c2ccc(F)cc23)CC1 [compound 396]							EC50 [1, 13]: > 1000 nM; Emax [1, 14]: < 65%; EC50 [2, 15]: 100 to 1000 nM; Emax [2, 16]: < 65%
Clc1ccc2c(c1)C1(CCN([C@H]3C[C@@H]4CC[C@H]3C4)CC1)CO2 [compound 181]					x (activity was measured to be greater than 1.0 μM)	xx (activity was measured to be between 0.1 μM and 1.0 μM)	Emax [1, 11]: 65 to 85%; Emax [2, 12]: 65 to 85%
Cc1ccc2c(c1)C1(CCN([C@@H]3C[C@@H]4CC[C@@H]3C4)CC1)CN2 [compound 23]					x (activity was measured to be greater than 1.0 μM)	xx (activity was measured to be between 0.1 μM and 1.0 μM)	Emax [1, 11]: < 65%; Emax [2, 12]: < 65%
CN(C)C(=O)N1CC2(CCN(C3CCN(C(=O)C4(C(F)(F)F)CC4)CC3)CC2)c2cc(F)ccc21 [compound 727]	25 to 100	xxx (activity was measured to be less than 2.0 μM)	25 to 100	x (activity was measured to be greater than 5.0 μM)			
CCC#CCOC(=O)N1CCC(N2CCC3(CC2)CN(C(=O)N(C)C)c2ccc(F)cc23)CC1 [compound 694]	25 to 100	xxx (activity was measured to be less than 2.0 μM)	25 to 100	xxx (activity was measured to be less than 2.0 μM)			
